Laboratory results published in US12552748B2, “Pyridine (thio)amides as fungicidal compounds” (Bayer Aktiengesellschaft, priority 2020, dated 2026).
Marks after values point to notes of the source that are not given here.

Tests used:
Botrytis cinerea = experiment: In vivo preventive test on Botrytis cinerea (grey mould); settings: 500 ppm of active ingredient, preventive spray on gherkin or cabbage, evaluated 4 to 5 days after inoculation, 0% = control plants, 100% = no disease, read-out: efficacy
Procedure: (§1) B-2. In Vivo Preventive Test on Botrytis cinerea (Grey Mould [table] The active ingredients were made soluble and homogenized in a mixture of Dimethyl sulfoxide/Acetone/Tween® 80 and then diluted in water to the desired concentration. The young plants of gherkin or cabbage were treated by spraying the active ingredient prepared as described above. Control plants were treated only with an aqueous solution of Acetone/Dimethyl sulfoxide/Tween® 80. After 24 hours, the plants were contaminated by spraying the leaves with an aqueous suspension of Botrytis cinerea spores.

physchem = assay type: physicochemical
In short: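 Reversed-phase HPLC per EEC directive 79/831 Annex V.A8, calibrated with straight-chain alkan-2-ones (C3–C16) of known Log P via linear interpolation of retention times. Lambda-max from UV spectra 200–400 nm at chromatographic peaks.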

Sphaerotheca fuliginea = experiment: In vivo preventive test on Sphaerotheca fuliginea (powdery mildew on cucurbits); settings: Podosphaera fuliginea, 192 h; 500 ppm of active ingredient; preventive spray on gherkin; evaluated 8 days after inoculation; 0% = control plants, 100% = no disease; read-out: efficacy
Procedure: as §1, with “B-4.” for “B-2.”, “Sphaerotheca fuliginea (Powdery Mildew on Cucurbits” for “Botrytis cinerea (Grey Mould”, “gherkin” for “gherkin or cabbage”, “Sphaerotheca fuliginea” for “Botrytis cinerea”

Pyricularia oryzae = experiment: microbe, parasite or virus in culture; assay type: cell-based; settings: 120 h, read-out: efficacy (inhibition of fungal growth)
Alternaria alternata = Alternaria alternata in vitro cell test; assay type: cell-based; settings: 120 h, 20 ppm of active ingredient, liquid culture with spores, 5 days incubation, spectrometric measurement of mycelium growth, read-out: efficacy (inhibition of fungal growth)
Procedure: B-6. Alternaria alternata In Vitro Cell Test • Solvent: DMSO • Culture medium: 14.6 g anhydrous D-glucose (VWR), 7.1 g Mycological Peptone (Oxoid), 1.4 g granulated Yeast Extract (Merck), QSP 1 liter • Inoculum: spores suspension Fungicides were solubilized in DMSO and the solution used to prepare the required range of concentrations. […] A spore suspension of A. alternata was prepared and diluted to the desired spore density. Fungicides were evaluated for their ability to inhibit spore germination and mycelium growth in liquid culture assay. The compounds were added in the desired concentration to the culture medium with spores. After 5 days incubation, fungi-toxicity of compounds was determined by spectrometric measurement of mycelium growth. Inhibition of fungal growth was determined by comparing the absorbance values in wells containing the fungicides with the absorbance in control wells without fungicides.

[1] = tested on: Colletotrichum lindemuthianum; experiment: Colletotrichum lindemuthianum in vitro cell test; assay type: cell-based; settings: 144 h, read-out: efficacy (inhibition of fungal growth)
Procedure: B-8. Colletotrichum lindemuthianum In Vitro Cell Test
• Solvent: DMSO • Culture medium: 14.6 g anhydrous D-glucose (VWR), 7.1 g Mycological Peptone (Oxoid), 1.4 g granulated Yeast Extract (Merck), QSP 1 liter • Inoculum: spores suspension
Fungicides were solubilized in DMSO and the solution used to prepare the required range of concentrations. The final concentration of DMSO used in the assay was ≤1%.
A spore suspension of C. lindemuthianum was prepared and diluted to the desired spore density.
Fungicides were evaluated for their ability to inhibit spores germination and mycelium growth in liquid culture assay. The compounds were added in the desired concentration to the culture medium with spores. After 6 days incubation, fungi-toxicity of compounds was determined by spectrometric measurement of mycelium growth. Inhibition of fungal growth was determined by comparing the absorbance values in wells containing the fungicides with the absorbance in control wells without fungicides.

Row | SMILES | LogP (physchem) | other results
1 | Cc1ccc(CCNC(=O)c2cc(Cl)nc(F)c2Oc2cccc(C(F)(F)F)c2)c(C)c1 [Compound I-018, 6-chloro-N-[2-(2,4-dimethylphenyl)ethyl]-2-fluoro-3-[3-(trifluoromethyl)phenoxy]pyridine-4-carboxamide] | – | pest or weed control at 500 ppm (Botrytis cinerea): 90 to 100%; chromatographic logP (physchem): 4.95; pest or weed control at 500 ppm (Sphaerotheca fuliginea): 90 to 100%
2 | Cc1ccc(C(F)(F)CNC(=O)c2c(Oc3cccc(C(F)(F)F)c3)cnc(Cl)c2C)c(C)c1 [Compound I-019, 2-chloro-N-[2-(2,4-dimethylphenyl)-2,2-difluoro-ethyl]-3-methyl-5-[3-(trifluoromethyl)phenoxy]pyridine-4-carboxamide] | – | inhibition at 20 ppm (Pyricularia oryzae): 90 to 100%; pest or weed control at 500 ppm (Botrytis cinerea): 90 to 100%; chromatographic logP (physchem): 4.64; inhibition at 20 ppm (Alternaria alternata): 90 to 100%; pest or weed control at 500 ppm (Sphaerotheca fuliginea): 90 to 100%; inhibition at 20 ppm [1]: 90 to 100%
3 | CCc1ccc(C(F)(F)CNC(=O)c2cc(Cl)ncc2Oc2cccc(C(F)(F)F)c2)c(Cl)c1 [Compound I-034, 2-chloro-N-[2-(2-chloro-4-ethyl-phenyl)-2,2-difluoro-ethyl]-5-[3-(trifluoromethyl)phenoxy]pyridine-4-carboxamide] | – | pest or weed control at 500 ppm (Botrytis cinerea): 90 to 100%; chromatographic logP (physchem): 4.98; inhibition at 20 ppm (Alternaria alternata): 80 to 89%; pest or weed control at 500 ppm (Sphaerotheca fuliginea): 90 to 100%
4 | Cc1ccc(CCNC(=O)c2cc(NC3CC3)ncc2Oc2cccc(C(F)(F)F)c2)c(C)c1 [Compound I-050, 2-(cyclopropylamino)-N-[2-(2,4-dimethylphenyl)ethyl]-5-[3-(tri-fluoromethyl)phenoxy]pyridine-4-carboxamide] | – | pest or weed control at 500 ppm (Botrytis cinerea): 90 to 100%; chromatographic logP (physchem): 3.77; inhibition at 20 ppm (Alternaria alternata): 90 to 100%
5 | Cc1ccc(C(F)(F)CNC(=O)c2c(Oc3cccc(C(F)(F)F)c3)cnc(Cl)c2I)c(C)c1 [Compound I-057, 2-chloro-N-[2-(2,4-dimethylphenyl)-2,2-difluoro-ethyl]-3-iodo-5-[3-(trifluoromethyl)phenoxy]pyridine-4-carboxamide] | – | pest or weed control at 500 ppm (Botrytis cinerea): 90 to 100%; chromatographic logP (physchem): 4.8; inhibition at 20 ppm (Alternaria alternata): 90 to 100%; pest or weed control at 500 ppm (Sphaerotheca fuliginea): 90 to 100%
6 | Cc1ccc(CCNC(=S)c2cc(Cl)ncc2Oc2cccc(C(F)(F)F)c2)c(C)c1 [Compound I-115, 2-chloro-N-[2-(2,4-dimethylphenyl)ethyl]-5-[3-(trifluoromethyl)phenoxy]pyridine-4-carbothioamide] | – | pest or weed control at 500 ppm (Botrytis cinerea): 90 to 100%; chromatographic logP (physchem): 5.42; pest or weed control at 500 ppm (Sphaerotheca fuliginea): 90 to 100%
7 | Cc1ccc(CCNC(=O)c2cc(Cl)ncc2Oc2cnc3c(c2)CCC3)c(C)c1 [Compound I-227] | 3.35^[a] | –
8 | Cc1ccc(CCNC(=O)c2cc(Cl)ncc2Oc2cccc(C=O)c2)c(C)c1 [Compound I-228] | 3.79^[a] | –
9 | Cc1ccc(CCNC(=O)c2cc(Cl)ncc2Oc2cccc(OC(F)(F)F)c2F)c(C)c1 [Compound I-229] | 4.95^[a] | –
10 | Cc1ccc(C(F)(F)CNC(=O)c2c(Oc3cccc(C(F)(F)F)c3)cnc(Cl)c2N2CCCC2)c(C)c1 [Compound I-230] | 5.49^[a] | –
11 | Cc1ccc(C(F)(F)CNC(=O)c2c(Oc3cccc(C(F)(F)F)c3)cnc(N3CCCC3)c2I)c(C)c1 [Compound I-231] | 5.57^[a] | –
12 | Cc1ccc(CCNC(=O)c2cc(Cl)ncc2Oc2ccc3c(c2)CCC3)c(C)c1 [Compound I-232] | 5.49^[a] | –
13 | Cc1ccc(CCNC(=O)c2cc(Cl)ncc2Oc2cc(F)c(F)cc2F)c(C)c1 [Compound I-233] | 4.42^[a] | –
14 | Cc1ccc(CCNC(=O)c2cc(C)ncc2Oc2cccc(Cl)c2)c(C)c1 [Compound I-234] | 3.96^[a] | –
15 | COCCOc1cccc(Oc2cnc(Cl)cc2C(=O)NCCc2ccc(C)cc2C)c1 [Compound I-235] | 4.27^[a] | –
16 | Cc1cc(C(=O)NCC(F)(F)c2ccc(Br)cc2Cl)c(Oc2cccc(C(F)F)c2)cn1 [Compound I-236] | 3.74^[a] | –
17 | CSc1cccc(Oc2cnc(Cl)cc2C(=O)NCCc2ccc(C)cc2C)c1F [Compound I-237] | 4.69^[a] | –
18 | Cc1ccc(CCNC(=O)c2cc(Cl)ncc2Oc2cccc(Cl)c2)c(C)c1 [Compound I-238] | 4.74^[a] | –
19 | Cc1ccc(C(F)(F)CNC(=O)c2cc(C3CC3)ncc2Oc2cccc(C3CC3)c2)c(C)c1 [Compound I-239] | 5.41^[a] | –
20 | Cc1ccc(CCNC(=O)c2cc(Cl)ncc2Oc2ccc(C(F)(F)F)cc2)c(C)c1 [Compound I-240] | 4.77^[a] | –
21 | O=C(NCC(F)(F)c1ccc(Br)cc1Cl)c1cc(Cl)ncc1Oc1cccc(Cl)c1 [Compound I-241] | 4.95^[a] | –
22 | Cc1ccc(CCNC(=O)c2cc(C)ncc2Oc2cccc(C3CC3)c2)c(C)c1 [Compound I-242] | 4.27^[a] | –

Row | SMILES | LogP (physchem) | other results
23 | Cc1ccc(CCNC(=O)c2cc(C3CC3)ncc2Oc2cccc(C3CC3)c2F)c(C)c1 [Compound I-243] | 5.32^[a] | –
24 | Cc1ccc(CCNC(=O)c2cc(Cl)ncc2Oc2cc(F)cc(Cl)c2)c(C)c1 [Compound I-244] | 4.82^[a] | –
25 | Cc1ccc(CCNC(=O)c2cc(Cl)nc(Cl)c2Oc2cccc(C(F)(F)F)c2)c(Cl)c1 [Compound I-245] | 5.17^[a] | –
26 | Cc1ccc(C(F)(F)CNC(=O)c2cc(C3CC3)ncc2Oc2cccc(C3CC3)c2F)c(C)c1 [Compound I-246] | 5.36^[a] | –
27 | Cc1ccc(C(F)(F)CNC(=O)c2cc(Cl)nc(Cl)c2Oc2cccc(C(F)(F)F)c2)c(C)c1 [Compound I-247] | 5.16^[a] | –
28 | CSc1cccc(Oc2cnc(Cl)cc2C(=O)NCCc2ccc(C)cc2C)c1 [Compound I-248] | 4.76^[a] | –
29 | O=C(NCC(F)(F)c1ccc(Br)cc1Cl)c1cc(Cl)ncc1Oc1cccc(C(F)F)c1 [Compound I-249] | 4.54^[a] | –
30 | Cc1ccc(CCNC(=O)c2cc(Cl)ncc2Oc2ccc(Cl)c(Cl)c2)c(C)c1 [Compound I-250] | 5.08^[a] | –
31 | COc1cccc(Oc2cnc(Cl)cc2C(=O)NCCc2ccc(C)cc2C)c1 [Compound I-252] | 4.42^[a] | –
32 | O=C(NCC(F)c1ccc(Cl)cc1Cl)c1cc(C2CC2)ncc1Oc1cccc(C2CC2)c1 (stereo not shown) [Compound I-253] | 5.42^[a] | –
33 | Cc1ccc(CCNC(=O)c2cc(Cl)ncc2Oc2ccc(Cl)c(C(F)(F)F)c2)c(C)c1 [Compound I-254] | 5.09^[a] | –
34 | Cc1cccc(Oc2cnc(C)cc2C(=O)NCCc2ccc(C)cc2C)c1 [Compound I-255] | 3.86^[a] | –
35 | Cc1ccc(CCNC(=O)c2cc(Cl)ncc2Oc2cccc(C3CCC3)c2)c(C)c1 [Compound I-257] | 5.84^[a] | –
36 | Cc1ccc(CCNC(=O)c2cc(Cl)ncc2Oc2cccc(-c3ccccn3)c2)c(C)c1 [Compound I-258] | 4.16^[a] | –
37 | CCOc1cccc(Oc2cnc(Cl)cc2C(=O)NCCc2ccc(C)cc2C)c1 [Compound I-259] | 4.85^[a] | –
38 | O=C(NCC(F)(F)c1ccc(Cl)cn1)c1cc(Cl)ncc1Oc1cccc(C(F)(F)F)c1 [Compound I-260] | 3.99^[a] | –
39 | Cc1ccc(CCNC(=O)c2cc(Cl)ncc2Oc2cccc(S(C)(=O)=O)c2)c(C)c1 [Compound I-261] | 3.38^[a] | –
40 | Cc1ccc(CCNC(=O)c2cc(C)ncc2Oc2cccc(C3CC3)c2F)c(C)c1 [Compound I-262] | 4.32^[a] | –
41 | Cc1ccc(CCNC(=O)c2cc(Cl)ncc2Oc2c(F)ccc(C)c2F)c(C)c1 [Compound I-264] | 4.76^[a] | –
42 | O=C(NCC(F)(F)c1ccc(-c2ccncc2Cl)cc1Cl)c1cc(Cl)ncc1Oc1cccc(C(F)(F)F)c1 [Compound I-266] | 4.51^[a] | –
43 | COCCc1ccc(C(F)(F)CNC(=O)c2cc(CCOC)ncc2Oc2cccc(C(F)F)c2)c(Cl)c1 [Compound I-267] | 3.74^[a] | –
44 | Cc1ccc(CCNC(=O)c2cc(Cl)ncc2Oc2ccc(C)c(Cl)c2)c(C)c1 [Compound I-268] | 5.23^[a] | –
